Laboratory results reported in PMC10263210, “Design, Synthesis and Biological Evaluation of Novel MDH Inhibitors Targeting Tumor Microenvironment” (Pharmaceuticals, 2023).

How the values were obtained:
CD73 [1] = experiment: CD73 ELISA; format: cell-based, human; conditions: A549 cells; for CD73 level (%): hypoxic conditions, 0 μM = 100
Protocol: (§1) It has been reported that CD73 expression is induced by HIF-1α under hypoxic conditions. Therefore, we examined whether the expression of CD73 is inhibited by compound 50 under hypoxia in A549 lung cancer cells. […] To confirm the effect of compound 50 on CD73 expression, we performed ELISA for CD73.
The prepared samples were incubated with the same amount of antibody cocktail for 1 h at room temperature and then washed three times with PT buffer. After washing, the plates were developed by adding 100 µL of TMB development solution, and the reaction was stopped by adding 100 µL of stop solution. The amount of CD73 was quantitatively measured according to the instructions on the Human CD73 Simplestep ELISA kit (Abcam, Cambridge, UK).

A549 cells [2] = experiment: ADP/ATP ratio assay; format: cell-based, human
Protocol: (§2) Malate transported to the interior of the mitochondria is oxidized to OAA by mitochondrial MDH2, thereby generating NADH, which then enters the ETC to produce ATP. Because inhibition of MAS is expected to reduce ATP production in cancer cells, the total amount of ATP was measured after treatment with compound 50.
The ADP/ATP ratio assay kit (Sigma-Aldrich, USA) was used for ADP/ATP determination according to the manufacturer’s instructions. Samples for analysis were prepared using the ADP/ATP ratio assay kit. A549 cells were cultured directly in an assay microplate. The culture medium was removed, and then 90 µL of ATP reagent was added to each well and incubated for 1 min at room temperature. Luminescence was measured on a luminometer for ATP (RLUA), and the plate was incubated for an additional 10 min. Next, the luminescence was read on a luminometer for ATP (RLUB). Five microliters of ADP reagent were added to each well. After 1 min, the luminescence was read (RLUC).

CD73 [3] = experiment: Western blot of CD73 expression under hypoxia; format: cell-based, human; conditions: A549 cells
Protocol: as §1
(§3) Human lung carcinoma A549 cells were cultured in Dulbecco’s modified Eagle’s medium and H460 cells were cultured in RPMI 1640 medium containing 10% fetal bovine serum and 1% penicillin/streptomycin at 37 °C with a 5% Co2 hypoxia experimental condition. The cells were grown in the hypoxia chamber (1% O2, 94% N2, and 5% Co2 in a multigas incubator)
(§4) The cells were lysed with RIPA buffer (Millipore, Billerica, MA, USA) containing a protease inhibitor cocktail (Roche, Basel, Switzerland) for 15 min at 4 °C and centrifuged at 12,000 rpm for 10 min. The lysates were quantified using a protein assay kit (Bio-Rad, Hercules, CA, USA). The lysates were subjected to an SDS-PAGE analysis and transferred to PVDF membranes (Millipore, Billerica, MA, USA). The proteins were identified using the appropriate antibodies: HIF-1α (BD Transduction Laboratories, San Diego, CA, USA), pyruvate dehydrogenase kinase 1 (PDK1) (Cell Signaling, Danvers, MA, USA), GLUT1 and β-action (Santa Cruz Biotechnology, Danvers, MA, USA), and CD73 (Proteintech, Rosemont, IL, USA).

A549 cells [4] = experiment: Intracellular ATP content (ATPlite); format: cell-based, human; conditions: 6 h
Protocol: as §2
A549 cells (1 × 10^4 cells/96-well plate) were incubated for 6 h with or without drugs. After removing the supernatant, an ATP assay was performed using ATPlite (PerkinElmer, Waltham, MA, USA) according to the manufacturer’s instructions. ATP content was measured using a luminometer (Synergy HTX multimode reader, Winoski, VT, USA).

HIF-1α = experiment: Western blot of HIF-1α and its target genes under hypoxia; format: cell-based, human; conditions: A549 cells, hypoxia
Protocol: Previously, it has been reported that the inhibition of MDH1 or MDH2 enzymes is related to HIF-1a expression levels. We investigated whether compound 50 decreases HIF-1α accumulation in A549 cells (Figure 6). […] Additionally, we confirmed that compound 50 suppressed the protein expression of HIF-1α target genes, such as GLUT1 and PDK1 (Figure 6), as clearly shown by the Western blot assay.
as §3, §4

H460 lung cancer cells = experiment: Cell growth inhibition assay (SRB), H460; format: cell-based; conditions: Homo sapiens, NCI-H460, means of three experiments, read-out: Cell Viability IC50 H460
Protocol: (§5) At the same time, we investigated the effect of the compounds on the growth inhibition of A549 and H460 lung cancer cells bearing KRAS and LKB1 mutations. […] Compound 50 containing a piperidine linker was selected for further analysis.
as §3
(§6) Cell growth inhibition was assessed using sulforhodamine B (SRB) as described in [34]. The cells were fixed with 10% formalin (Sigma-Aldrich) and stained with 0.4% SRB. Protein-bound dye was dissolved in 10 mM of Tris, and its optical density was measured at 540 nm.

human recombinant MDH2 = target: T1, human recombinant MDH2 (Homo sapiens, UniProt P40926); experiment: MDH2 enzyme activity assay (oxaloacetate-dependent NADH oxidation); format: biochemical; conditions: means of three experiments
T1 construct: purchased BioVision
T1 sequence (P40926 25-338): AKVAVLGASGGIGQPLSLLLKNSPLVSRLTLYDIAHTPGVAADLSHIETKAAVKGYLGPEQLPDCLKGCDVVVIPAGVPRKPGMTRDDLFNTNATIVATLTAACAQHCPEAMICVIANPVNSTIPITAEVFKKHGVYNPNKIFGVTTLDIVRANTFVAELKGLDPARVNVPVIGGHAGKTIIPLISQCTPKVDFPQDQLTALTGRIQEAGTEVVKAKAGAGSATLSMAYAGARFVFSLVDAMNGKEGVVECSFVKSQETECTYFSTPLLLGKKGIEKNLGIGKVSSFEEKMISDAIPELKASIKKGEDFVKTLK
Text: To develop the dual inhibitors of MDH1 and MDH2, we screened the newly synthesized LW1497 derivatives using MDH and MDH2 enzyme assays. LW1497 was used as the positive control for the MDH1/2 dual inhibitor. We evaluated the ability of the synthesized compounds to inhibit human recombinant MDH1 and MDH2 enzymatic activity using an oxaloacetate-dependent NADH oxidation assay (Table 1, Table 2, Table 3, Table 4, Table 5 and Table 6). Our SAR optimization strategy focused on four different parts of LW1497: (A) the introduction of various groups at different positions on the amide phenyl ring; (B) the replacement of the 3-(4-(2,4,4-trimethylpentan-2-yl) alkyl chain; (C) the alteration of the amide portion; and (D) the modification of the oxypropanamide linker portion (Figure 1).
The activities of MDH1 and MDH2 were confirmed using an oxaloacetate-dependent NADH oxidation assay. Experiments were conducted using 100 mM of potassium phosphate buffer (pH 7.4) and human recombinant MDH1 (BioVision) and MDH2 (BioVision), and the results were obtained by measuring the absorbance at 340 nm. Enzyme activity was measured using a plate reader at a wavelength of 340 nm.

A549 lung cancer cells = experiment: Cell growth inhibition assay (SRB), A549; format: cell-based; conditions: Homo sapiens, means of three experiments, read-out: Cell Viability IC50 A549
Protocol: as §5, §3, §6

IC50 (H460 lung cancer cells): 3.67 ± 0.06 µM
melting point: 139 to 140 °C
IC50 (human recombinant MDH2): 2.24 ± 0.09 µM
IC50 (A549 lung cancer cells): 3.94 ± 0.04 µM
SMILES: CC(C)(C)CC(C)(C)c1ccc(N2CCC(C(=O)Nc3cccc(OC(F)(F)F)c3)CC2)cc1 [Compound 50, N-(3-(Trifluoromethoxy)phenyl)-1-(4-(2,4,4-trimethylpentan-2-yl)phenyl)piperidine-4-carboxamide]
CD73 levels (CD73 [1]; ELISA): reduced CD73 levels in A549 cells in a dose-dependent manner
CD73 level (%) (CD73 [1]; 2.5 μM): 90%
CD73 level (%) (CD73 [1]; 5.0 μM): 84%
CD73 level (%) (CD73 [1]; 10 μM): 68%
ADP/ATP (A549 cells [2]): increase in ADP/ATP
CD73 expression increased by HIF-1α (CD73 [3]): significantly decreased
ATP level (A549 cells [4]): reduced ATP level
HIF-1α accumulation (HIF-1α): decreased HIF-1α accumulation in a dose-dependent manner
protein expression of HIF-1α target genes GLUT1 and PDK1 (HIF-1α; Western blot): suppressed
